Converted amounts (≈) assume the structure as drawn. “And” between values parts separate entries of the source, which are not always exact repeats. Equal entries are not always repeated.
Legend:
Trypanosoma cruzi [1] = experiment: Inhibitory concentration against epimastigotes (Tulahuen strain) of Trypanosoma cruzi; Inactive; assay type: functional, organism-based
Trypanosoma cruzi [2] = experiment: Inhibitory concentration against trypomastigotes (Y strain) of Trypanosoma cruzi; Inactive; assay type: functional, organism-based
Trypanosoma cruzi [3] = experiment: Inhibitory concentration against Epimastigotes (Tulahuen strain) of Trypanosoma cruzi; assay type: functional, organism-based
Trypanosoma cruzi [4] = experiment: Inhibitory concentration against Trypomastigotes (Y strain) of Trypanosoma cruzi; assay type: functional, organism-based
[5] = Ratio of inhibitory concentration to that of reference drug was determined; assay type: functional
[6] = Trypanosoma cruzi, read-out: IC50

IC50 (Trypanosoma cruzi [1]) [µg/mL] | IC50 (Trypanosoma cruzi [2]) [µg/mL] | Structure (SMILES) | also measured
> 100 | > 100 | OC1(Cc2ccc3c(c2)OCO3)c2ccccc2C2=NCCCN21 (stereo unspecified) | –
> 100 | > 100 | O=C(Cc1ccc(Cl)cc1)c1ccccc1C(=O)N1CCCCC1 | –
> 100 | > 100 | COc1ccc(C(=O)C(=O)c2ccccc2C(=O)N2CCCC2)cc1 | –
– | > 100 | OC1(Cc2ccccc2)c2ccccc2C2=NCCCN21 (stereo unspecified) | –
> 100 | > 100 | COc1ccc(C(=O)C(=O)c2ccccc2C(=O)N2CCCCC2)cc1 | –
10 (≈ 33.5 µM) | 2.3 (≈ 7.7 µM) | OC1(Cc2ccc(Cl)cc2)c2ccccc2C2=NCCN21 (stereo unspecified) | IC50 (Trypanosoma cruzi [3]): 33.6 µM; IC50 (Trypanosoma cruzi [4]; [6]): 7.9 µM
> 100 | > 100 | COc1ccc(CCc2cc(OC(C)=O)cc(OC)c2C(=O)O)cc1 | –
> 100 | > 100 | O=C(Cc1ccc2c(c1)OCO2)c1ccccc1C(=O)N1CCCCC1 | –
> 100 | > 100 | COc1cc(/C=C2\OC(=O)c3ccccc32)cc(OC)c1OC | –
> 100 | > 100 | COc1ccc(/C=C2\OC(=O)c3ccccc32)cc1 | –
> 100 | > 100 | COC(=O)c1c(CCc2ccc(OC)cc2)cc(O)cc1OC | –
45 (≈ 202 µM) | > 100 | O=C1O/C(=C\c2ccccc2)c2ccccc21 | –
> 100 | > 100 | Oc1nnc(Cc2ccc3c(c2)OCO3)c2ccccc12 | –
> 100 | > 100 | COc1cc(Cc2nnc(O)c3ccccc23)cc(OC)c1OC | –
> 100 | > 100 | O=C1O/C(=C\c2ccc(Cl)cc2)c2ccccc21 | –

Further lines, the molecule ahead of its results:

Structure (SMILES) | IC50 (Trypanosoma cruzi [1]) [µg/mL] | IC50 (Trypanosoma cruzi [2]) [µg/mL] | also measured
O=c1[nH]nc(Cc2ccccc2)c2ccccc12 | > 100 | > 100 | –
COc1ccc(CC2(O)c3ccccc3C3=NCCN32)cc1 (stereo unspecified) | – | > 100 | –
CCNC(=O)c1ccccc1C(=O)C(=O)c1ccc(OC)cc1 | > 100 | > 100 | –
COc1ccc(CC2(O)c3ccccc3C3=NCCN32)cc1OC (stereo unspecified) | > 100 | > 100 | –
COc1ccc(Cc2nnc(O)c3ccccc23)cc1 | > 100 | > 100 | –
COc1cc(CC(=O)c2ccccc2C(=O)N2CCCCC2)cc(OC)c1OC | – | > 100 | –
COc1ccc(CC(=O)c2ccccc2C(=O)N2CCCCC2)cc1 | > 100 | > 100 | –
COc1ccc(CCc2cc(O)cc(OC)c2C(=O)N2CCCCC2)cc1 | – | – | IC50 (Trypanosoma cruzi [3]): 30 µg/mL and 81.3 µM; IC50 (Trypanosoma cruzi [4]): 12 µg/mL and 33 µg/mL
OC1(Cc2ccc3c(c2)OCO3)c2ccccc2C2=NCCN21 (stereo unspecified) | > 100 | > 100 | –
COc1cc(Cc2nn(C)c(=O)c3ccccc23)cc(OC)c1OC | > 100 | > 100 | –
COc1ccc(/C=C2\OC(=O)c3ccccc32)cc1OC | > 100 | > 100 | –
COc1cc(CC2(O)c3ccccc3C3=NCCCN32)cc(OC)c1OC (stereo unspecified) | > 100 | > 100 | –
O=C(C(=O)c1ccccc1C(=O)N1CCCCC1)c1ccccc1 | > 100 | > 100 | –
COc1cc(CC2(O)c3ccccc3C3=NCCN32)cc(OC)c1OC (stereo unspecified) | > 100 | > 100 | –
OC1(Cc2ccc(Cl)cc2)c2ccccc2C2=NCCCN21 (stereo unspecified) | – | > 100 | –
O=C(Cn1ccnc1[N+](=O)[O-])NCc1ccccc1 [BENZNIDAZOLE] | – | – | Ratio [5]: 1; IC50 (Trypanosoma cruzi [3]): 7.4 µg/mL and 30 µM
O=C(C(=O)c1ccccc1C(=O)N1CCCCC1)c1ccc2c(c1)OCO2 | > 100 | > 100 | –
O=C1O/C(=C\c2ccc3c(c2)OCO3)c2ccccc21 | > 100 | > 100 | –

Structure (SMILES) | IC50 (Trypanosoma cruzi [1]) [µg/mL] | IC50 (Trypanosoma cruzi [2]) [µg/mL] | also measured
COc1cc(C(=O)C(=O)c2ccccc2C(=O)N2CCCCC2)cc(OC)c1OC | – | > 100 | –
COc1ccc(CC2(O)c3ccccc3C3=NCCCN32)cc1OC (stereo unspecified) | > 100 | > 100 | –
COc1ccc(Cc2nn(C)c(=O)c3ccccc23)cc1OC | > 100 | > 100 | –
COc1ccc(CC2(O)c3ccccc3C3=NCCCN32)cc1 (stereo unspecified) | > 100 | > 100 | –
COc1ccc(Cc2nnc(O)c3ccccc23)cc1OC | > 100 | > 100 | –
OC1(Cc2ccccc2)c2ccccc2C2=NCCN21 (stereo unspecified) | – | > 100 | –
COc1ccc(C(=O)C(=O)c2ccccc2C(=O)N2CCCCC2)cc1OC | > 100 | > 100 | –
O=C(Cc1ccccc1)c1ccccc1C(=O)N1CCCCC1 | > 100 | > 100 | –
COc1ccc(CCc2cc(O)cc(OC)c2)cc1 | > 100 | > 100 | –
Oc1nnc(Cc2ccc(Cl)cc2)c2ccccc12 | > 100 | > 100 | –
COc1ccc(CCc2cc(O)cc(OC)c2C(=O)O)cc1 [ISONOTHOLAENIC ACID] | – | > 100 | –
CN(C)c1ccc(C(=C2C=CC(=[N+](C)C)C=C2)c2ccc(N(C)C)cc2)cc1.[Cl-] [GENTIAN VIOLET] | – | – | IC50 (Trypanosoma cruzi [4]; [6]): 100 µg/mL and 245 µM
Cn1nc(Cc2ccccc2)c2ccccc2c1=O | > 100 | > 100 | –
Cn1nc(Cc2ccc3c(c2)OCO3)c2ccccc2c1=O | > 100 | > 100 | –
O=C(C(=O)c1ccccc1C(=O)N1CCCCC1)c1ccc(Cl)cc1 | > 100 | > 100 | –
COc1ccc(Cc2nn(C)c(=O)c3ccccc23)cc1 | > 100 | > 100 | –
Cn1nc(Cc2ccc(Cl)cc2)c2ccccc2c1=O | > 100 | > 100 | –
COc1ccc(CC(=O)c2ccccc2C(=O)N2CCCCC2)cc1OC | > 100 | > 100 | –
